In patent US7314620B2, “Methods for diagnosis and treatment of PH domain signal transduction disorders” (New York University, priority 1995, dated 2008) one finds Kd and binding to vesicles data, which are given here for 1 substance.

One test concerns the target T1, PLCδ-PH (Rattus norvegicus, UniProt P10688).
T1 construct: initiator methionine (N); made in house; host or cells: Escherichia coli (pET11a, T7 system)
T1 sequence (P10688 20-136): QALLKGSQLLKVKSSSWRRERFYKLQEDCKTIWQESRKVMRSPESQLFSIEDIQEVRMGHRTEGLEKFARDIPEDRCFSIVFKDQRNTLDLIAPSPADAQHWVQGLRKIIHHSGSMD
Put plainly: Equilibrium gel filtration (Hummel and Dreyer) of PH domain binding to lipid vesicles. The following applies: lipid-containing DMPC vesicles; overestimates of the real KD; read-out: apparent KD for vesicle binding. The method, then:
(§1) A 150×7.5 mm Superdex 75 column, attached to a Dionex HPLC system, was equilibrated with buffer containing PH domain at around 5 μM (depending upon the experiment). A suspension of vesicles that also contained 5 μM PH domain was then injected. In the absence of interaction between the PH domain and the vesicles, the resulting column profile (detected by absorbance at 280 nm) reflects only the lipid peak. However, if there is significant interaction, a trough is observed at a position corresponding to the elution position of the free PH domain, since the lipids have removed free PH domain from the column buffer. When such a trough was observed, in order to determine a KD for the interaction, a series of higher concentrations of PH domain were injected, all with constant lipid concentration. A plot of trough area against [PH] in the injected sample was linear, becoming positive when excess free protein was present in the injected sample (see FIG. 5B). This line was used to determine the point at which no trough was observed. At this point, [PH]free in the injected sample is equal to [PH] in the column buffer. Since [PH]total as well as [lipid]total in the injected sample are known, KD can be determined, as KD=([PH]free×[lipid]free)/[complex]. [complex]=[PH]total−[PH]free, and [lipid]free=[lipid]total−[complex].
(§2) We also utilized the equilibrium gel-filtration approach described by Hummel, J. P., and Dreyer, W. J., Biochim. Biophys. Acta. 63, 530-532, 1962. In this approach, a size exclusion column is equilibrated with a solution of the ligand (5 μM PH domain in this case), and a solution of macromolecule (a vesicle suspension in this case) that also contains 5 μM ligand is then injected. In the absence of interaction between the ligand and macromolecule, a single peak, corresponding to the macromolecule, is observed. […] If an interaction is observed, its KD can be determined as described in Experimental Procedures. […]

Another test deals with T2, PlecN-PH (Homo sapiens, UniProt P08567).
T2 construct: residues 1-110 of pleckstrin (PlecN-PH); initiator methionine (N); made in house; host or cells: Escherichia coli (pET11a, T7 system)
T2 sequence (P08567 1-110): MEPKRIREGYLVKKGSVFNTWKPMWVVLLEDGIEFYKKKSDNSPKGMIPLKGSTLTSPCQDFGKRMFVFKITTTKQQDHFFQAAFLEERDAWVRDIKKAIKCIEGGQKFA
Described as above. The following applies: PIP2-containing vesicles; overestimate; inhibited by moderately high NaCl; read-out: apparent KD for vesicle binding. The method, then:
as §1, §2

Test [1] deals with any PH domain (PLCδ-PH, Dyn-PH, PlecN-PH). Put plainly: Centrifugation-based assay of PH domain binding to lipid vesicles. The following applies: lipid at 5% in DMPC vesicles. The method, then:
Attempts to detect PH domain association with lipid vesicles were performed exactly as described by Harlan, J. E. et al., Nature 371, 168-170, 1994. In addition to using the BCA protein assay reagent, for which lipid blanks were rather high compared with the values expected for the protein concentrations employed, we also measured OD278 of the supernatants after addition of SDS in order to detect removal of protein upon pelleting vesicles. […] Initially, we performed a centrifugation-based assay, using the conditions described by Harlan, J. E. et al., Nature 371, 168-170, 1994. […] Similarly, we were unable to detect association of any of the PH domains with the same vesicles by using size-exclusion chromatography to separate protein and lipid. Any complexes between the PH domains and these vesicles therefore form with low affinity and/or have fast dissociation kinetics, such that they dissociate in the separation methods employed.

Another test deals with T3, whole PLC-δ1 (Homo sapiens, UniProt P51178).
T3 sequence (P51178 1-756): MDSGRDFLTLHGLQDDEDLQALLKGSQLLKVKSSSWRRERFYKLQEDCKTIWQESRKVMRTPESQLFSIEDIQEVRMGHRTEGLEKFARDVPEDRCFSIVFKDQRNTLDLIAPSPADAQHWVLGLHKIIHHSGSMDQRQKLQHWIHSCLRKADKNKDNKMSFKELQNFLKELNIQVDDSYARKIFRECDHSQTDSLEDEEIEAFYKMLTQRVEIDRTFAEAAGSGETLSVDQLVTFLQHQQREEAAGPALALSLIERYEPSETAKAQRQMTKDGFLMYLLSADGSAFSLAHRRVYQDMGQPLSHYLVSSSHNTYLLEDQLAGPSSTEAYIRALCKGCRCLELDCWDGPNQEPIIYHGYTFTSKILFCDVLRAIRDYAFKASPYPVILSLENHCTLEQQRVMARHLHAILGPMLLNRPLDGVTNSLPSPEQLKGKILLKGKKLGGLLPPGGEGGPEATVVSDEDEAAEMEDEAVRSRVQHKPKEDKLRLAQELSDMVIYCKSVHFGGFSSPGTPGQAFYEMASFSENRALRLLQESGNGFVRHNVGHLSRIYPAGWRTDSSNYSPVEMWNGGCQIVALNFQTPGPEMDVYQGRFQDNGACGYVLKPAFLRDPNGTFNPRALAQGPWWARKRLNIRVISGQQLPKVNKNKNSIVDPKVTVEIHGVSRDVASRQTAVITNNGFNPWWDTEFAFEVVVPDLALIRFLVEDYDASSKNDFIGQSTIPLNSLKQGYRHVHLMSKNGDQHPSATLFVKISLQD
The following applies: sucrose-loaded PIP2-containing vesicles; Rebecchi et al. 1992; read-out: apparent KD; cited from earlier work.

Consider “Phosphatidylinositol-(4,5)-bisphosphate [PIP2]”, for which the Kd at PLCδ-PH is 13 µM; on PlecN-PH, around 90 µM; at whole PLC-δ1, around 2.5 µM. Further, the binding to vesicles entry in test [1] is “no binding”.
